From ChEMBL document CHEMBL1201862, “PubChem BioAssay data set” (2004)
Active and inactive are the calls of the source.

How the values were obtained:
[1] = biological target: SWI/SNF-related matrix-associated actin-dependent regulator of chromatin subfamily A member 2 (Homo sapiens, UniProt P51531); test: Luminescence-based cell-based high throughput dose response assay to identify activators of the function of SWI/SNF related, matrix associated, actin dependent regulator of chromatin, subfamily a, member 2 (SMARCA2, BRM).; assay type: functional
Chain of SWI/SNF-related matrix-associated actin-dependent regulator of chromatin subfamily A member 2 (P51531 whole entry): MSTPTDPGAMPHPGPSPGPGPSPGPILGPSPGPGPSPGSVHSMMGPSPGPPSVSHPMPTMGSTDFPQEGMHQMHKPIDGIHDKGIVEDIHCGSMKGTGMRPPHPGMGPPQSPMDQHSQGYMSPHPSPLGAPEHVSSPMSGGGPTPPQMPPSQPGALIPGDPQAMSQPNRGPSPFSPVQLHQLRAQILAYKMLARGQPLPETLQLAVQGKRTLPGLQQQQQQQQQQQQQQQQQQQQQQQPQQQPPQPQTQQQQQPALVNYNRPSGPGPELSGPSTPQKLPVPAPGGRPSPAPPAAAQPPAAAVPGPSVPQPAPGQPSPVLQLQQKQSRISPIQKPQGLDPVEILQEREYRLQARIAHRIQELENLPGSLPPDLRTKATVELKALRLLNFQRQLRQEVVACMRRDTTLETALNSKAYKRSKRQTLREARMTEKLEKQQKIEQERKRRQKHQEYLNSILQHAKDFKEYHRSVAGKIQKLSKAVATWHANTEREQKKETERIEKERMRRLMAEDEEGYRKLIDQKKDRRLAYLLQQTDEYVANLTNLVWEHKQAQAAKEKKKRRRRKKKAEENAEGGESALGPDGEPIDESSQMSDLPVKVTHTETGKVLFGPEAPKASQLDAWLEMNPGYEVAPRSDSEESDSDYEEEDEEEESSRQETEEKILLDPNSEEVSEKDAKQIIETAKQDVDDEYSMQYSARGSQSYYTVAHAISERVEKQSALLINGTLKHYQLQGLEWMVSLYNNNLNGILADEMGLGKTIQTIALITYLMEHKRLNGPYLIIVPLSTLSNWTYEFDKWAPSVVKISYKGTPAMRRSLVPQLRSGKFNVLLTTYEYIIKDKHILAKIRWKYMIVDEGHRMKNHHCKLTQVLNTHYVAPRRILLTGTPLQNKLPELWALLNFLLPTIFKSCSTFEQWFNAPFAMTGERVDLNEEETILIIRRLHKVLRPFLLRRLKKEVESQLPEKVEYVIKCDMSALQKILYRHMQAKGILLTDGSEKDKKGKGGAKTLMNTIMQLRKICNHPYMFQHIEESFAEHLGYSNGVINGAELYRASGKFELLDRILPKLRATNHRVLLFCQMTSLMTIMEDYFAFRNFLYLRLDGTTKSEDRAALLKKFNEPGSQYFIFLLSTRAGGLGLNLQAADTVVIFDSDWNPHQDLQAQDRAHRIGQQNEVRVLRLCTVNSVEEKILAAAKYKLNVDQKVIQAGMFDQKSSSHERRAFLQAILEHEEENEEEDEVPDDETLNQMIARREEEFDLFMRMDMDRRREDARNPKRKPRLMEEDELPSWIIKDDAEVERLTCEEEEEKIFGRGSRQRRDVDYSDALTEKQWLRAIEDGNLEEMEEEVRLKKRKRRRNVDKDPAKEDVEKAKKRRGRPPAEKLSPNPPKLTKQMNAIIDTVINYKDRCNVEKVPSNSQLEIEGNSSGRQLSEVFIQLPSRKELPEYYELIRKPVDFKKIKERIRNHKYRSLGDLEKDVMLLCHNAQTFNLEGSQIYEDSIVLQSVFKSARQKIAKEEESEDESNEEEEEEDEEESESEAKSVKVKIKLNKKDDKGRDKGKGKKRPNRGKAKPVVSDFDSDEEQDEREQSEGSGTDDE

[2] = Counterscreen for activators of the function of SWI/SNF related, matrix associated, actin dependent regulator of chromatin, subfamily a, member 2 (SMARCA2, BRM): Luminescence-based cell-based high throughput dose response assay to identify non-selective compounds using the VP16 reporter assay.; assay type: functional
[3] = inhibition of ADAM10 peptide cleavage – biochemical, FRET peptide substrate, recombinant human ADAM10, selectivity assay for ADAM17 exosite inhibitor project, dose response (AID 743259);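 also: ADAM10 enzyme cleaving a FRET peptide substrate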
[4] = biological target: Disintegrin and metalloproteinase domain-containing protein 17 (Homo sapiens, UniProt P78536); test: exosite inhibitors of ADAM17, dose response, biochemical (AID 743260)
Chain of Disintegrin and metalloproteinase domain-containing protein 17 (P78536 whole entry, the tested form may be a part): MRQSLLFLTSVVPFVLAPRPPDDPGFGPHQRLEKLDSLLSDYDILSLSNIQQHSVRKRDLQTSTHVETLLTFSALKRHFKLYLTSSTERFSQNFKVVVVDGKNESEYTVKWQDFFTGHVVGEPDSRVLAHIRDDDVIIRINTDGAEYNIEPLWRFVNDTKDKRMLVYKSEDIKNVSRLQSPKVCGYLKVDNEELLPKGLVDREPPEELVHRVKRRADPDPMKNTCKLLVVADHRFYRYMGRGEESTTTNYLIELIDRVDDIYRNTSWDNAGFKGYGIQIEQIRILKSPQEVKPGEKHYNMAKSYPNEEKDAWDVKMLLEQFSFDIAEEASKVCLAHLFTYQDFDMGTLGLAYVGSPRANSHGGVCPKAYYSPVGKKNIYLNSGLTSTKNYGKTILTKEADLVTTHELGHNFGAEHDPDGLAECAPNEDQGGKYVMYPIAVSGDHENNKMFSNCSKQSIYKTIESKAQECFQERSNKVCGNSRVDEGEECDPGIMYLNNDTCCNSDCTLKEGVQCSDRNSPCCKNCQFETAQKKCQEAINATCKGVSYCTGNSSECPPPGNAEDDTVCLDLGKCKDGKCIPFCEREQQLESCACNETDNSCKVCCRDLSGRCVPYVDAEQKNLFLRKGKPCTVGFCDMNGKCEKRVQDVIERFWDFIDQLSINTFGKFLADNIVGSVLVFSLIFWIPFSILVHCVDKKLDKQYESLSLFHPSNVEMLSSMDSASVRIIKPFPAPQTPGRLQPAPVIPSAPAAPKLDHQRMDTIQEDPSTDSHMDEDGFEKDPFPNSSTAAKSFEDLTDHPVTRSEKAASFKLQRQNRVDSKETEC

[5] = viability loss in HeLa cells – cytotoxicity control for MgcRacGAP inhibitor project, dose response (AID 624300); assay type: functional
[6] = biological target: T1, Rac GTPase-activating protein 1 (Homo sapiens, UniProt Q9H0H5); test: blockers of MgcRacGAP-driven Rac1 GTP hydrolysis – biochemical, ADP Hunter fluorescence, primary and confirmatory, confirmation (AID 624330); assay type: functional
T1 sequence (Q9H0H5 whole entry): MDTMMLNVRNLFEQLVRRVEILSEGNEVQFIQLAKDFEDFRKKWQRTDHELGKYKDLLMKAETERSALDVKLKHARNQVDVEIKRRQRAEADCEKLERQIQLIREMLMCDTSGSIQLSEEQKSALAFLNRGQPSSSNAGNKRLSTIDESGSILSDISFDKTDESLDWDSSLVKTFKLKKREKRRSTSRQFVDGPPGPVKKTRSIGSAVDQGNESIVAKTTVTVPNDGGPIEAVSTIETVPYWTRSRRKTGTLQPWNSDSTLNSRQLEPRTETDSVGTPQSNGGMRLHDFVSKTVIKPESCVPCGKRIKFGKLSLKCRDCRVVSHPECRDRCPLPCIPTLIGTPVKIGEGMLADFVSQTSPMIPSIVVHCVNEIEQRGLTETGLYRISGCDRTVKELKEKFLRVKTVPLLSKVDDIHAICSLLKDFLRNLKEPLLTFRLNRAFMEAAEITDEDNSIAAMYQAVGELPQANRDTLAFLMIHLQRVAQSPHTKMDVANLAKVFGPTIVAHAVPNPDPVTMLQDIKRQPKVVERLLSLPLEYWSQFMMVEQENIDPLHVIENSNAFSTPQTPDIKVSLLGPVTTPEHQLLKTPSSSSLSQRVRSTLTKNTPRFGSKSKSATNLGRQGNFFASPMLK

[7] = biological target: T2, Tyrosyl-DNA phosphodiesterase 2 (Homo sapiens, UniProt O95551); test: potency against TDP2 phosphodiesterase activity – biochemical, epi absorbance, IC50, dose response (AID 743297)
T2 sequence (O95551 whole entry): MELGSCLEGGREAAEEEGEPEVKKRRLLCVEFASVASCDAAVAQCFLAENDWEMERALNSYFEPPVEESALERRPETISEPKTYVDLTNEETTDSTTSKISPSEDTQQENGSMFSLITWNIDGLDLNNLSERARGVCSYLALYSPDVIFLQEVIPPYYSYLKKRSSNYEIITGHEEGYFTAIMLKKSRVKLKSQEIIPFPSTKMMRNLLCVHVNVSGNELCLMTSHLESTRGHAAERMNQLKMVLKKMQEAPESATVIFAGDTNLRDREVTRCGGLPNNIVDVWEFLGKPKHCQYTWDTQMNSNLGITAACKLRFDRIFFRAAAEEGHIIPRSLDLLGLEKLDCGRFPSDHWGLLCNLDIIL

[8] = biological target: T3, Mitochondrial peptide methionine sulfoxide reductase (Bos taurus, UniProt P54149); test: Absorbance-based biochemical high throughput dose response assay for activators of Methionine sulfoxide reductase A (MsrA).; assay type: functional
T3 sequence (P54149 whole entry): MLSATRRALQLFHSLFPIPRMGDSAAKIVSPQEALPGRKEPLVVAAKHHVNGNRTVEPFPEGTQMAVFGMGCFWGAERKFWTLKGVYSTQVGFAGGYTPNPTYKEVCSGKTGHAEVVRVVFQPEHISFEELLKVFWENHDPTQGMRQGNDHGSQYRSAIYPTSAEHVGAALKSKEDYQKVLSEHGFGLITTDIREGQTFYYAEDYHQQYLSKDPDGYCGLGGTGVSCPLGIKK

[9] = A2780 cell killing – plate reader, dry powder samples, cytotoxicity control, dose response (AID 743046); assay type: functional, cell-based
[10] = OVCAR8 cell viability loss – plate reader, dry powder samples, PAX8 project, dose response (AID 743197); assay type: functional, cell-based; conditions: OVCAR-8
Paired box protein Pax-8 = Paired box protein Pax-8 (Homo sapiens, UniProt Q06710); test: PAX8 transcriptional activity inhibition in RMG-I – RMG-I cells, luciferase, cherry-pick, dose response (AID 687027); assay type: functional, cell-based;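 also: luciferase reporter driven by Pax8 target thyroperoxidase promoter measured by SteadyGlo luminescence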
Chain of Paired box protein Pax-8 (Q06710 whole entry): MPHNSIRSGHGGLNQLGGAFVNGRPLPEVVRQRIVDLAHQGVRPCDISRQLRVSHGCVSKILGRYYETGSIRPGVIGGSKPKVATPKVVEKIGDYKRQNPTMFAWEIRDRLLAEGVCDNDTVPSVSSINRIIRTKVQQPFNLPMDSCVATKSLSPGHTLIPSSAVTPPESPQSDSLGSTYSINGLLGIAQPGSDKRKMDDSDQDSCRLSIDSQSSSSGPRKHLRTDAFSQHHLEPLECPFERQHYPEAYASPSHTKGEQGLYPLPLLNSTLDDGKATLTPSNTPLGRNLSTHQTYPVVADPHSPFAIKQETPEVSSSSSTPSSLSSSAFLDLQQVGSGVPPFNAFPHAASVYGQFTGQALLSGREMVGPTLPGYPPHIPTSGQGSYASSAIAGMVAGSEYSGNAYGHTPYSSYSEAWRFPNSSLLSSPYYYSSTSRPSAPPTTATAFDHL

[11] = OVCAR-3 cell viability loss – plate reader, dry powder samples, PAX8 inhibitor project, dose response (AID 743044); assay type: functional, cell-based
[12] = biological target: Voltage-dependent T-type calcium channel subunit alpha-1H (Homo sapiens, UniProt O95180); assay type: functional;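 also: channel activity triggered by adding a high calcium stimulation buffer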
Cytochrome P450 3A4 = Cytochrome P450 3A4 (Homo sapiens, UniProt P08684);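 also: CYP3A4 tested as one member of a cytochrome P450 panel screen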
Chain of Cytochrome P450 3A4 (P08684 whole entry): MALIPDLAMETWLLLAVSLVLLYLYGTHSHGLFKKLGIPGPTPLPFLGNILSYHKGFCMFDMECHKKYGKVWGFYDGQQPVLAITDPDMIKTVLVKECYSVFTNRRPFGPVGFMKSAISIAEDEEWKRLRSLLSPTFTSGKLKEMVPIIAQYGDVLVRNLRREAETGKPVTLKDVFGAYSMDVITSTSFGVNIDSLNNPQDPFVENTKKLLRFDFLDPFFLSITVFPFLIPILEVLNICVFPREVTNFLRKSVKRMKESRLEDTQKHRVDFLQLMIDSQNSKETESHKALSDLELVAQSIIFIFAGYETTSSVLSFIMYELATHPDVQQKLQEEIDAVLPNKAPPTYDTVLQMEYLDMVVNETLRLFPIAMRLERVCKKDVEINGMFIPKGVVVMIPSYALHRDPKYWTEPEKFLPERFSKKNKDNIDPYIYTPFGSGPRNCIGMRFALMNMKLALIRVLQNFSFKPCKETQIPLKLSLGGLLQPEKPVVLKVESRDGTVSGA

[13] = activation of miR-122 Renilla sensor silencing – cell-based, Huh7 psiCHECK-miR122, Renilla luciferase, cherry-picked, dose response (AID 651956); assay type: functional;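 also: huh7 hepatoma cells stably carrying a psiCHECK-2 miR-122 sensor plasmid; renilla luciferase signal reporting endogenous miR-122 activity after 48 h compound exposure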
[14] = general mammalian cell viability loss – activator set, cherry-pick, cytotoxicity control for miR-122 modulator project, dose response (AID 720690); assay type: functional, cell-based;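 also: HEK293T human cells scored for general mammalian cytotoxicity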
[15] = biological target: NAD-dependent protein deacylase sirtuin-5, mitochondrial (Homo sapiens, UniProt Q9NXA8); test: sirtuin-5 deacylation blockers, concentration series – biochemical, fluorescence imaging, cherry-pick, set 5, dose response (AID 720591);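 also: desuccinylation of succinyl peptide AMC substrate read as fluorescence after trypsin release; potency of inhibitors that lower fluorescence and may act on trypsin instead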
Chain of NAD-dependent protein deacylase sirtuin-5, mitochondrial (Q9NXA8 whole entry): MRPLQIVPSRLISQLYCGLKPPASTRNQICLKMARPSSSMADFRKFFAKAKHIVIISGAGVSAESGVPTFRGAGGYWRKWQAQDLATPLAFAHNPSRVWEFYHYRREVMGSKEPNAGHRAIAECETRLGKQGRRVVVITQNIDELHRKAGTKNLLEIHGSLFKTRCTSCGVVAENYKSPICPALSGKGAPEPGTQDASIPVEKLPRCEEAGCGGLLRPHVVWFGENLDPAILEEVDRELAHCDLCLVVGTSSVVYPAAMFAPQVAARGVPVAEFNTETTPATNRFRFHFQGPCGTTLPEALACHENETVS

Kallikrein-7 = Kallikrein-7 (Homo sapiens, UniProt P49862); test: Fluorescence Intensity-based biochemical primary high throughput dose response assay to identify activators of kallikrein-7 (K7) zymogen.
Chain of Kallikrein-7 (P49862 whole entry): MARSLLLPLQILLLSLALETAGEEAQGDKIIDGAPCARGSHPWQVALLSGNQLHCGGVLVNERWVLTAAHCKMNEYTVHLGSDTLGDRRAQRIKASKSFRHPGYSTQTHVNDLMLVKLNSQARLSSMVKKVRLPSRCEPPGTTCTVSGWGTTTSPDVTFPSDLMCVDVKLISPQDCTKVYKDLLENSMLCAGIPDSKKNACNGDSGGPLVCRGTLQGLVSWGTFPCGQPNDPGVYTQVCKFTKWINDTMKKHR

Protein skinhead-1 = biological target: T4, Protein skinhead-1 (Caenorhabditis elegans, UniProt P34707); assay type: functional
T4 sequence (P34707 whole entry): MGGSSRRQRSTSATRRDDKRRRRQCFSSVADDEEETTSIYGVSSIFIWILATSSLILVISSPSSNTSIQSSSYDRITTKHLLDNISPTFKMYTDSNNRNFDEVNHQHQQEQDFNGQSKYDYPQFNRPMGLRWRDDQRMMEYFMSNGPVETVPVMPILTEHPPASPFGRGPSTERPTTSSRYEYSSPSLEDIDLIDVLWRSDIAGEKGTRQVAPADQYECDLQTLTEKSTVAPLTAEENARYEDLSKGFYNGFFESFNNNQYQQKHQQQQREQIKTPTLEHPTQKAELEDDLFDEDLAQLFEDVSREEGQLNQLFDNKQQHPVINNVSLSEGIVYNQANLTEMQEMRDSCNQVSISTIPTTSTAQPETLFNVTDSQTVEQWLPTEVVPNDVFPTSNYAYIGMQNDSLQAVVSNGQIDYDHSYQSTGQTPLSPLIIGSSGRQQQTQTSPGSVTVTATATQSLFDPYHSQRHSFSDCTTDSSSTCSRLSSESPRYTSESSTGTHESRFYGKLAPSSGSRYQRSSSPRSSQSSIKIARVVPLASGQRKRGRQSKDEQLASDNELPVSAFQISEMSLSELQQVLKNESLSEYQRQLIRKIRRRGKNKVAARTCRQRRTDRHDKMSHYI

[16] = biological target: 5-hydroxytryptamine receptor 2A (Mus musculus, UniProt P35363); assay type: functional, cell-based;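 also: CHO-K1 cells with tagged receptor and beta-arrestin; agonist potency measured as compound-induced activation of the receptor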
Chain of 5-hydroxytryptamine receptor 2A (P35363 whole entry): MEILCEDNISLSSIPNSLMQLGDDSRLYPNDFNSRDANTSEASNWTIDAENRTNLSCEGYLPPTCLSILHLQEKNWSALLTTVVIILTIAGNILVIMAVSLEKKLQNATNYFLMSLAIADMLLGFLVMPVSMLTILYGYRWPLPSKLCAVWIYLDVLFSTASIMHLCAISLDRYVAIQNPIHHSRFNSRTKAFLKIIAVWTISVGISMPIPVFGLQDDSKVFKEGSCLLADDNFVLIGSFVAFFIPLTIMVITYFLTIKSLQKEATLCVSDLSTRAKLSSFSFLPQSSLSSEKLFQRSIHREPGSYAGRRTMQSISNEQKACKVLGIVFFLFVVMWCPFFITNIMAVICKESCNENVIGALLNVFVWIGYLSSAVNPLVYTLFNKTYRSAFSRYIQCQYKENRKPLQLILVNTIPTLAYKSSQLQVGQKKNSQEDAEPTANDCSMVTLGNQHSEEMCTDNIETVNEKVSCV

Mu-type opioid receptor = Mu-type opioid receptor (Homo sapiens, UniProt P35372); assay type: functional, cell-based;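 also: U2OS cells with beta-arrestin recruitment to OPRM1 by beta-gal complementation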
[17] = viability loss in CEM21 cells – cell-based, plate reader, dry powder, cytotoxicity control, dose response (AID 687026); assay type: functional
[18] = biological target: T5, Zinc finger protein mex-5 (Caenorhabditis elegans, UniProt Q9XUB2); test: potency of MEX-5 RNA-binding blockers – biochemical, C. elegans, fluorescence polarization, dose response (AID 1960)
T5 sequence (Q9XUB2 whole entry): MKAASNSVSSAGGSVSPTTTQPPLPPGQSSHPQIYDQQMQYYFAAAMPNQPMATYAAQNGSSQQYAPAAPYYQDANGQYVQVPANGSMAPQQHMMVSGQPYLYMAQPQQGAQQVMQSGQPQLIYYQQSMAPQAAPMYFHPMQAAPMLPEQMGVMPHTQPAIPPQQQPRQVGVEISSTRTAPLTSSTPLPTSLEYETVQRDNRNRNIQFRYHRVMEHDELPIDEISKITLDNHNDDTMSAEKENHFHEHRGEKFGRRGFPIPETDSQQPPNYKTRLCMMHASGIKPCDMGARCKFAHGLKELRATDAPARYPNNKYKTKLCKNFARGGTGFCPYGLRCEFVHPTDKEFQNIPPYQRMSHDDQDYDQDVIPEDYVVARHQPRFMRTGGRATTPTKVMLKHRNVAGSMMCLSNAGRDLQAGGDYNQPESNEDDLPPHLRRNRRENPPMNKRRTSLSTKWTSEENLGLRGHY

Beta-lactamase [19] = biological target: Beta-lactamase (Salmonella choleraesuis (strain SC-B67), UniProt Q5J463)
[20] = biological target: T6, Polyadenylate-binding protein 1 (Homo sapiens, UniProt P11940); test: MLLE domain peptide-binding blockers, IC50 – biochemical, fluorescence polarization, FITC-PAM2 peptide, dose response (AID 602259); assay type: functional; conditions: read-out: IC50_Mean
T6 sequence (P11940 whole entry, the tested form may be a part): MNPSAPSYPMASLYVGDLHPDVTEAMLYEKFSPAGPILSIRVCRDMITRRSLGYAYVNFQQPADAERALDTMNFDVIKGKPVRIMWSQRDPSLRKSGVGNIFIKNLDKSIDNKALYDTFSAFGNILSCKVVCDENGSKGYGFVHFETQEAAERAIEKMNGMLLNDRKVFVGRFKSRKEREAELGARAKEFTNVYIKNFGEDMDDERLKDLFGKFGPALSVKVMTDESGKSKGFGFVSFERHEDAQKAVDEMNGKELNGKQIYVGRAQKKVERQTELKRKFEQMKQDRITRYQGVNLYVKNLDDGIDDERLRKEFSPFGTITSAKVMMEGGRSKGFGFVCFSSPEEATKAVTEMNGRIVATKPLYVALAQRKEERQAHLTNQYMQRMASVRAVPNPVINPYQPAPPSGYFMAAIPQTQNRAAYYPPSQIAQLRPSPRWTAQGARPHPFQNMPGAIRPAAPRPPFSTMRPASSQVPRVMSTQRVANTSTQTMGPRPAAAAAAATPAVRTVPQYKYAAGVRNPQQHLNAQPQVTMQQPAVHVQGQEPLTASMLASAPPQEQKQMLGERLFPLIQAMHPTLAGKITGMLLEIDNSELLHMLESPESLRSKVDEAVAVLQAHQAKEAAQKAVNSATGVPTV

H9c2 = test: cells; assay type: functional, cell-based; conditions: Rattus norvegicus, H9c2, Myocardium;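 also: confirmatory concentration-response retest of ultra-high-throughput screening hits for modulation of myocardial damage; cell death induced by hydrogen peroxide oxidative stress; compound pretreatment for 60 min then peroxide exposure for 2 h; potency is for protecting the cells against peroxide damage rather than for killing them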
[21] = biological target: T6, Polyadenylate-binding protein 1; test: MLLE binding blockers, Cy5 peptide tracer – biochemical, fluorescence polarization, Cy5-PAM2 peptide, secondary, miRNA deadenylation inhibitor project, dose response (AID 602260); assay type: functional; conditions: read-out: IC50_Mean
[22] = biological target: T7, RNA-binding protein pos-1 (Caenorhabditis elegans, UniProt G5EF15); test: disruptors of C. elegans POS-1 RNA interaction – biochemical, fluorescence polarization, dose response (AID 1964);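 also: purified POS-1 fused to maltose binding protein made in E. coli; potency of compounds blocking POS-1 binding to fluorescent RNA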
T7 sequence (G5EF15 whole entry): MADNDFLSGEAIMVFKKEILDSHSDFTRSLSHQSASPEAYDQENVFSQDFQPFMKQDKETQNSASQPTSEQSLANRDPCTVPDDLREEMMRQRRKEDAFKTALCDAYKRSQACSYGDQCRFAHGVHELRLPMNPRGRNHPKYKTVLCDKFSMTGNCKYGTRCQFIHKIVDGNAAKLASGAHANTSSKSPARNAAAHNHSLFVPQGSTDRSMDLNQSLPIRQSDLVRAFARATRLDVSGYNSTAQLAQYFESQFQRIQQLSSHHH

Beta-lactamase [23] = biological target: Beta-lactamase (Pseudomonas aeruginosa, UniProt Q79MP6);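 also: biochemical dose-response test of metallo-beta-lactamase enzyme inhibition, read out by epi-absorbance; purified recombinant IMP-1 metallo-beta-lactamase with nitrocefin as substrate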
Cryptococcus neoformans = test: PubChem AID 686997; assay type: functional, organism-based

Structure (SMILES): C=C1C(=O)OC2C1CCC(C)C1(O)C=CC(=O)C21C (centres undefined)
- EC50 [1]: > 91.2 µM (inactive)
- EC50 [2]: > 91.2 µM (inactive)

Structure (SMILES): CC(C)(C)c1ccc(-c2nc(NCc3cccnc3)c3ccccc3n2)cc1
- IC50 [3]: > 7.72 µM (active)
- IC50 [4]: > 69.5 µM (inactive)

Structure (SMILES): COc1cc(C=c2c3ccccc3n3c2cc(-c2ccccc2)[n+]3C)cc(OC)c1OC
- CC50 [5]: 100 µM (active)
- IC50 [6]: 323 µM (active)
- IC50 [7]: > 128 µM (inactive)
- EC50 [8]: > 104 µM (inactive)

Structure (SMILES): C[C@@H]1CN([C@H](C)CO)C(=O)c2cc(NS(=O)(=O)c3ccc(F)cc3)ccc2O[C@@H](C)CCCCO[C@H]1CN(C)S(=O)(=O)c1ccc(Cl)cc1
- AC50 [9]: 2.97 µM (active)
- AC50 [10]: > 70 µM (inactive)
- AC50 (Paired box protein Pax-8): 6.83 µM (active)
- AC50 [11]: 32 µM (active)

Structure (SMILES): O=C(CC(c1ccccc1)c1ccccc1)Nc1ccc2c(c1)OCCO2
- IC50 [3]: > 69.5 µM (inactive)
- EC50 [12]: 33.6 µM (active)
- IC50 [4]: > 69.5 µM (inactive)
- AC50 (Cytochrome P450 3A4): 20 µM (inconclusive)

Structure (SMILES): COc1ccccc1C#Cc1ccc2c(c1)O[C@@H](CN(C)Cc1cccnc1)[C@@H](C)CN([C@H](C)CO)S2(=O)=O
- AC50 [13]: 25.4 µM (active)
- AC50 [14]: 9.3 µM (active)

Structure (SMILES): O=c1c2ccccc2sc2c(CO)ccc(NCCN3CCCCC3)c12
- EC50 [1]: > 91.1 µM (inactive)
- EC50 [2]: > 91.1 µM (inactive)
- AC50 (Cytochrome P450 3A4): 6.31 µM (inconclusive)

Structure (SMILES): COCC(C)n1c(C)cc(C(=O)COC(=O)CCc2nc(O)c3ccccc3n2)c1C (centres undefined)
- AC50 [15]: > 30 µM (inactive)

Structure (SMILES): COc1cc(C(=O)Nc2nnc(Cc3ccccc3)s2)cc(OC)c1OC
- AC50 [15]: > 30 µM (inactive)

Structure (SMILES): O=c1c(-c2ccc(Br)cc2)coc2c(CN3CCOCC3)c(O)ccc12
- EC50 (Kallikrein-7): 66.1 µM (inactive)
- IC50 (Protein skinhead-1): > 100 µM (inactive)

Structure (SMILES): CC(C)=CC(=O)N1CC[C@@H](N2CCN(c3ccccc3F)CC2)[C@H](O)C1
- EC50 [16]: 43.5 µM (inactive)
- EC50 (Mu-type opioid receptor): 92.4 µM (inactive)

Structure (SMILES): CC(C)CC#Cc1ccc2c(c1)O[C@H](CN(C)C(=O)c1ccccc1)[C@H](C)CN([C@H](C)CO)S2(=O)=O
- AC50 [13]: 27.2 µM (active)
- AC50 [14]: 27.5 µM (active)

Structure (SMILES): O=C(c1cc(-c2cccs2)nc2ccccc12)N1CCN(CCO)CC1
- EC50 (Kallikrein-7): > 69.5 µM (inactive)

Structure (SMILES): Cc1ccc(-c2nnc3ccc4c(C(F)(F)F)cc(C(F)(F)F)nc4n23)cc1
- AC50 [17]: > 70 µM (inactive)

Structure (SMILES): CCOC(=O)c1c2c3c(cccc3n(C)c1=O)C(=O)c1ccccc1-2
- EC50 [18]: 9.59 µM (active)
- IC50 (Beta-lactamase [19]): > 59.6 µM (inactive)
- IC50 [20]: 37.2 µM (inactive)
- IC50 (H9c2): > 79 µM (inactive)
- IC50 [21]: > 66 µM (inactive)
- EC50 [22]: 8.67 µM (inconclusive)
- IC50 (Beta-lactamase [23]): > 59.6 µM (inactive)

Structure (SMILES): COC(=O)C1=C(C)N(Cc2ccccc2)C(=S)NC1c1ccc(Cl)cc1 (centres undefined)
- AC50 (Cryptococcus neoformans): 28.7 µM (active)
